The values that follow come from publication PMC9320114 (Molecules, 2022).

One test concerns the target MurC (Escherichia coli, UniProt P17952). In words: Inhibition of MurC, colorimetric malachite green method. The class given is biochemical, bacterial. The settings on record: for remaining activity at 100 µM: 0.25 h, residual activity at 100 µM, read-out: MurC RA (%); for remaining activity at 100 µM / IC50: Table 2; for IC50: IC50 ± SEM, read-out: MurC IC50; for MurC inhibition (in words): assayed at 100 µM. As to the method:
Inhibition of Mur enzymes was monitored with the colorimetric malachite green method, which measured orthophosphate formed during reaction. The mixtures with a final volume of 50 µL contained:
MurC: 50 mM HEPES-NaOH, pH 8.0, 5 mM MgCl2, 0.005% Triton X-114, 120 µM L-Ala, 120 µM UDP-N-acetyl-muramic acid, 450 µM ATP, purified MurC, and 50 or 100 µM of each compound tested.
All compounds were soluble in the assay mixtures containing 5% DMSO (v/v). After incubation for 15 min (20 min for DdlB) at 37 °C, the enzyme reaction was terminated by addition of Biomol® reagent (100 µL) and absorbance was measured after 5 min at 650 nm (Synergy™ H4 microplate reader; BioTek Instruments, Inc., BioTek Gen5 Data Analysis Software, version 2.9, Santa Clara, CA, USA). All experiments were performed in duplicate.

The next test addresses T1, hMAO-A (Homo sapiens, UniProt P21397).
T1 construct: purchased Sigma Aldrich; host or cells: BTI-TN-5B1-4 baculovirus-infected insect cells
T1 sequence (P21397 1-527): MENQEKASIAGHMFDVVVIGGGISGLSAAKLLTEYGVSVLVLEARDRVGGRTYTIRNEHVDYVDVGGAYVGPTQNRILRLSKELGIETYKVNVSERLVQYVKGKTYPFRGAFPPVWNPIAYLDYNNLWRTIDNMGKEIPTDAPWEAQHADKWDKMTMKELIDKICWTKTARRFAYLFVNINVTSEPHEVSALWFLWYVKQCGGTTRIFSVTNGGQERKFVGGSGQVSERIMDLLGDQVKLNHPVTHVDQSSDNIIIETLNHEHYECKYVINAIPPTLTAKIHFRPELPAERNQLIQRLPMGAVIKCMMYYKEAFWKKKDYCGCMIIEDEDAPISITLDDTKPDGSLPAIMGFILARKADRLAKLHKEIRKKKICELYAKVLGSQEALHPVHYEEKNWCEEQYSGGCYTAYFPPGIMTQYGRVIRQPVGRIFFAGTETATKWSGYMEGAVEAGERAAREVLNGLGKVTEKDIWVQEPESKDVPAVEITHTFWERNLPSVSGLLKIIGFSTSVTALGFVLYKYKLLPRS
Nature of the test: Inhibition of hMAO-A, fluorimetric Amplex Red assay. The class given is biochemical. The settings on record: residual activity at 10 µM; for remaining activity at 10 µM: read-out: hMAO-A RA (%). As to the method:
(§1) The effects of the compounds on hMAO-A and hMAO-B were investigated using a fluorimetric assay, following a method previously described in the literature. Recombinant human microsomal hMAO enzymes expressed in BTI-TN-5B1-4 baculovirus-infected insect cells, horseradish peroxidase (HRP, type II, lyophilized powder), and p-tyramine hydrochloride were purchased from Sigma Aldrich. 10-Acetyl-3,7-dihydroxyphenoxazine (Amplex Red reagent) was synthesized as described in the literature.
Briefly, 100 µL of 50 mM sodium phosphate buffer (pH 7.4, 0.05% (v/v) Triton X-114), containing the compounds and hMAO-A or hMAO-B, was incubated for 15 min at 37 °C in a flat-bottomed black 96-well microplate protected from ambient light. After preincubation, the reaction was started by adding final concentrations of 200 µM Amplex Red reagent, 2 U/mL HRP, and 1 mM p-tyramine hydrochloride. Resorufin production was quantified based on the fluorescence produced (λex = 530 nm; λem = 590 nm) at 37 °C over a 20 min period. For the control experiments, DMSO was used instead of appropriate dilutions of the compounds in DMSO. For the determination of blank (b), the enzyme solution was replaced by a phosphate-buffered solution. Initial velocities were calculated from the obtained trend, with each measurement performed in duplicate. Specific fluorescence emission to determine the final results was calculated after subtracting the blank activity (b). Inhibitory potencies were expressed as RAs, and IC50 values were calculated as described in the section “Inhibition of hBChE and mAChE” above.

A further test has as its target T2, hMAO-B (Homo sapiens, UniProt P27338).
T2 construct: purchased Sigma Aldrich; host or cells: BTI-TN-5B1-4 baculovirus-infected insect cells
T2 sequence (P27338 1-520): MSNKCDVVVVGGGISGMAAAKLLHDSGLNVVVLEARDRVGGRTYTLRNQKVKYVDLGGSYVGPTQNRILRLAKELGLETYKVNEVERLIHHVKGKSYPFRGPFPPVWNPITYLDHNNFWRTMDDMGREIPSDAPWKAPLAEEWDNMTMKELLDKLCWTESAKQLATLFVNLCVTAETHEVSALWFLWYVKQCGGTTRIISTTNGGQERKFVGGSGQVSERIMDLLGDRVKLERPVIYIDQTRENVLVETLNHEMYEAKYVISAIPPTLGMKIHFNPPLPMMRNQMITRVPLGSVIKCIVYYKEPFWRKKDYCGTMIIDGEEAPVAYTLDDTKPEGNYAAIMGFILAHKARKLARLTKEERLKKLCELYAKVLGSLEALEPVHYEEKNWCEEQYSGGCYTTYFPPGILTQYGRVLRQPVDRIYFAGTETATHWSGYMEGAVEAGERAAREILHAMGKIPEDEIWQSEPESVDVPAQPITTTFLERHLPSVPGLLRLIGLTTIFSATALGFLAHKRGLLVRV
Nature of the test: biochemical. The conditions noted are these: for remaining activity at 10 µM / hMAO-B RA [%]: residual activity at 10 µM; for remaining activity at 10 µM: read-out: hMAO-B RA (%); for IC50: IC50 ± SEM.
From the text: as §1
After preincubation, the reaction was started by adding final concentrations of 200 µM Amplex Red reagent, 2 U/mL HRP, and 1 mM p-tyramine hydrochloride. Resorufin production was quantified based on the fluorescence produced (λex = 530 nm; λem = 590 nm) at 37 °C over a 20 min period. For the control experiments, DMSO was used instead of appropriate dilutions of the compounds in DMSO. For the determination of blank (b), the enzyme solution was replaced by a phosphate-buffered solution. Initial velocities were calculated from the obtained trend, with each measurement performed in duplicate. Specific fluorescence emission to determine the final results was calculated after subtracting the blank activity (b). Inhibitory potencies were expressed as RAs, and IC50 values were calculated as described in the section “Inhibition of hBChE and mAChE” above.

For orientation: IC50 means the concentration that inhibits the measured activity by half.

Chain of MurC (P17952 whole entry): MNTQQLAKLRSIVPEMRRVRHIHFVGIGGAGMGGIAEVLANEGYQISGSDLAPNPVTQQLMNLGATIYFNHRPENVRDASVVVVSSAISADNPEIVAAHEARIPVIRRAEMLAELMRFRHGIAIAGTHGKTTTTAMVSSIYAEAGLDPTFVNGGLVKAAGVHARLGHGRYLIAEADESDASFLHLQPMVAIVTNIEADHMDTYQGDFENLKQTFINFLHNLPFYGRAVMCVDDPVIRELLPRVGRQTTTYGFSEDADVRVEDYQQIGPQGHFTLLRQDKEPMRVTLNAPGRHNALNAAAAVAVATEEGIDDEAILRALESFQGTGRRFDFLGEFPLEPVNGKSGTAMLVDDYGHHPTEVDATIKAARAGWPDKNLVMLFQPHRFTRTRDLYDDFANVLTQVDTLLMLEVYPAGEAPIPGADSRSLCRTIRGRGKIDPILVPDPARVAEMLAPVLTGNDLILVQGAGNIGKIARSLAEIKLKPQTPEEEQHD

Turning to `CCCCc1nc2ccn(Cc3ccccc3F)c(=O)c2n1Cc1ccc(-c2ccccc2-c2nnn[nH]2)cc1` [Compound 10], at MurC, the remaining activity at 100 µM came out at 30% and the IC50 was found to be 92 ± 11 µM.
For `CCCCc1nc2ccn(Cc3ccccc3Cl)c(=O)c2n1Cc1ccc(-c2ccccc2-c2nnn[nH]2)cc1` [Compound 11], on MurC, the remaining activity at 100 µM was found to be 20% and the IC50 was found to be 77 ± 12 µM.
As for `CCCCc1nc2ccn(Cc3ccccc3C(=O)OC)c(=O)c2n1Cc1ccc(-c2ccccc2-c2nnn[nH]2)cc1` [Compound 12], on MurC, the remaining activity at 100 µM turned out to be 27% and the IC50 came out at 84 ± 15 µM.
Turning to `CCCCc1nc2ccn(Cc3ccccc3C(=O)O)c(=O)c2n1Cc1ccc(-c2ccccc2-c2nnn[nH]2)cc1` [Compound 13], on MurC, the remaining activity at 100 µM was found to be 34% and the half-maximal inhibitory concentration (IC50) is 109 ± 26 µM.
For `CCCCc1nc2ccn(Cc3ccsc3)c(=O)c2n1Cc1ccc(-c2ccccc2-c2nnn[nH]2)cc1` [Compound 14], on MurC, the remaining activity at 100 µM stood at 26% and the IC50 stood at 90 ± 13 µM.
As for `CCCCc1nc2ccn(CC(=O)NC(C)(C)C)c(=O)c2n1Cc1ccc(-c2ccccc2S(=O)(=O)NC(=O)CCc2ccccc2)cc1F` [Compound 15], at MurC, the remaining activity at 100 µM turned out to be 59% and the “MurC inhibition (in words)” value is “loss of MurC inhibition”.
Take `CCCCc1nc2ccn(CC(=O)N3CCCCC3)c(=O)c2n1Cc1ccc(-c2ccccc2S(=O)(=O)NC(=O)CCc2ccccc2)cc1F` [Compound 16]: the remaining activity at 100 µM at MurC was determined as 53%.
Regarding `CCCCc1nc2ccn(CC(=O)C(C)(C)C)c(=O)c2n1Cc1ccc(-c2ccccc2-c2nnn[nH]2)cc1` [Compound 17], on MurC, the remaining activity at 100 µM turned out to be 75% and the “MurC inhibition (in words)” value is reported as “loss of MurC inhibition”.
Regarding `CCCCc1nc2ccn(Cc3ccccc3C(=O)OCC)c(=O)c2n1Cc1ccc(-c2ccccc2C#N)cc1` [Compound 18], the remaining activity at 100 µM on MurC was found to be 58%.
With `CNC(=O)c1cc(Oc2ccc(NC(=O)Nc3cc(C(F)(F)F)ccc3-n3cncn3)cc2)ccn1` [Compound 20], the “hMAO-A RA [%]” value on hMAO-A (Table 3) was found to be 60%. For the same compound, the remaining activity at 10 µM on hMAO-B (Table 3) turned out to be 99%.
As to `CNC(=O)c1cc(Oc2ccc(NC(=O)Nc3cc(C(F)(F)F)ccc3-n3cncn3)cc2)ccn1` [Compound 21], the “hMAO-A RA [%]” value on hMAO-A (Table 3) is 92%. The “hMAO-B RA [%]” value at hMAO-B (Table 3) came out at 88%.
Take `Nc1ncnc2c1ncn2-c1ccc(NC(=O)Nc2cc(C(F)(F)F)ccc2-n2cncn2)cc1` [Compound 22]: the remaining activity at 10 µM at hMAO-A (Table 3) stood at 111%; at hMAO-B (Table 3), 6%. The compound also yielded a concentration for half-maximal inhibition (IC50) at hMAO-B (Table 3) of 0.71 ± 0.1 µM.
With `Nc1ccc(NC(=O)Nc2cc(C(F)(F)F)ccc2-n2cncn2)cc1` [Compound 23], the remaining activity at 10 µM at hMAO-A (Table 3) turned out to be 100%; on hMAO-B (Table 3), 24%. The same compound displayed an IC50 against hMAO-B (Table 3) of 3 ± 0.8 µM.
Consider `CNC(=O)c1cc(Oc2ccc(NC(=O)Nc3cc(C(F)(F)F)ccc3F)cc2)ccn1` [Compound 24], for which the remaining activity at 10 µM on hMAO-A (Table 3) and at hMAO-B (Table 3) was 100% in each case.
As for `O=C(Nc1cc(C(F)(F)F)ccc1-n1cncn1)Nc1ccc(OCCN2CCOCC2)c2ccccc12` [Compound 25], the remaining activity at 10 µM at hMAO-A (Table 3) came to 79%; on hMAO-B (Table 3), 86%.
For `CNC(=O)c1cc(Oc2ccc(NC(=O)Nc3cc(C(F)(F)F)ccc3-n3cncn3)cc2)cc[n+]1[O-]` [Compound 26], in that order: 89% and 98%.
`CN(C)CCOc1ccc(NC(=O)Nc2cc(C(F)(F)F)ccc2-n2cncn2)cc1` [Compound 27]: at hMAO-A (Table 3), the remaining activity at 10 µM was 117%. On hMAO-B (Table 3), the IC50 turned out to be 0.465 ± 0.042 µM and the remaining activity at 10 µM is 6%.
For `O=C(Nc1ccc(OCCN2CCCCC2)cc1)Nc1cc(C(F)(F)F)ccc1-n1cncn1` [Compound 28], in that order: 94%, 2.6 ± 0.1 µM and 15%.
For `CNC(=O)c1cc(Oc2ccc(NC(=O)Nc3ccc(Cl)c(C(F)(F)F)c3)cc2)ccn1` [Compound 29], the remaining activity at 10 µM at hMAO-A (Table 3) came out at 86%; on hMAO-B (Table 3), 89%.
On to `FC(F)(F)c1ccc2nccc(OCC3CCCN3c3ccnc4ncnn34)c2c1` (stereo not shown) [Compound S1], for which the “hMAO-A RA [%]” value at hMAO-A (Table S3) is 70%. Moreover, the “hMAO-B RA [%]” value on hMAO-B (Table S3) worked out at 75%.
For `c1cc(OCC2CCCN2c2ccnc3ncnn23)c2ccncc2c1` (stereo not shown) [Compound S2], on hMAO-A (Table S3), the “hMAO-A RA [%]” value is listed as 87%. Further, the “hMAO-B RA [%]” value at hMAO-B (Table S3) amounted to 88%.
Taken in the same sequence, the figures for `N#Cc1cccc(C(=O)OCC2CCCN2c2ccnc3ncnn23)c1` (stereo not shown) [Compound S3] were 96% and 91%.
Taken in the same sequence, the figures for `c1cc(OCC2CCCN2c2ccnc3ncnn23)c2cccnc2c1` (stereo not shown) [Compound S4] were 80% and 99%.
In the case of `CC(=O)N1CCc2cccc(OCC3CCCN3c3ccnc4ncnn34)c2C1` (stereo not shown) [Compound S5], on hMAO-A (Table S3), the “hMAO-A RA [%]” value is 94%. The “hMAO-B RA [%]” value at hMAO-B (Table S3) is listed as 98%.
Turning to `CCOc1cccc(C(=O)OCC2CCCN2c2ccnc3ncnn23)c1` (stereo not shown) [Compound S6], the “hMAO-A RA [%]” value on hMAO-A (Table S3) was 96%. Moreover, the “hMAO-B RA [%]” value on hMAO-B (Table S3) is given as 88%.
Taken in the same sequence, the figures for `O=C(OCC1CCCN1c1ccnc2ncnn12)c1cccc(CCl)c1` (stereo not shown) [Compound S7] were 70% and 93%.
On to `O=C(NCCc1ccc(Cl)cc1)c1cc(OCC2CCCN2c2ccnc3ncnn23)c2ccccc2n1` (stereo not shown) [Compound S8], for which the “hMAO-A RA [%]” value on hMAO-A (Table S3) is 86%. Further, the “hMAO-B RA [%]” value at hMAO-B (Table S3) worked out at 104%.
`O=C(OCC1CCCN1c1ccnc2ncnn12)c1ccccc1I` (stereo not shown) [Compound S9]: on hMAO-A (Table S3), the “hMAO-A RA [%]” value is 90%. In addition, the “hMAO-B RA [%]” value on hMAO-B (Table S3) is on record as 93%.
Take `O=C(OCC1CCCN1c1ccnc2ncnn12)c1cccc(OC(F)(F)F)c1` (stereo not shown) [Compound S10]: the “hMAO-A RA [%]” value at hMAO-A (Table S3) was 92%. The “hMAO-B RA [%]” value on hMAO-B (Table S3) is 81%.
`COc1ccc2c3c([nH]c2c1)C(C)=NCC3` [Harmaline, reference compound]: the remaining activity at 10 µM on hMAO-A (Table 3) was 0%.
